# Data taken from patent US7977366B2, “Treating an inflammatory disorder or inhibiting respiratory burst in adherent neutrophils with chemical inhibitors of neutrophil activation” (Cornell Research Foundation, Inc., priority 2003, dated 2011).
# Test system: p47phox
# Test: Translocation of p47phox subunit to the cell membrane (western blot of membrane fraction)
# Format: cell-based, human
# Details: TNF or PMA stimulation
# Description: In an attempt to identify specific steps of the biochemical pathway(s) that are influenced by Comp II, the effect on translocation of phagocyte oxidase (Phox) translocation was examined. Phox is a multi-subunit enzyme complex that generates H2O2 upon activation. Activation of Phox requires an assembly of both membrane associated and cytosolic subunits at the plasma or phagosomal membrane as well as phosphorylation of several subunits. The cytochrome b559 (also known as b558) components of phox (gp91 and gp22) are localized on the membranes of specific granules (Bjerrum et al, “Dual Granule Localization of the Dormant NADPH Oxidase and Cytochrome b559 in Human Neutrophils,” Eur J Haematol 43(1): 67-77 (1989), which is hereby incorporated by reference in its entirety), and recruitment of these subunits to the membrane occurs simultaneously with degranulation. […] The influence of Comp II on the translocation of p47phox subunit, one of the components of NADPH oxidase, to the cell membrane, was examined as follows.
# Neutrophil lysates were prepared as above with 2.5% TritonX-100 lysis buffer (final concentration of 1% TritonX-100 after dilution in plate with residual KRPG). The cell lysate was passed through 26-gauge needle six times to shear DNA and centrifuged at 20,000×g for 15 min to remove cell debris and DNA. […]
compound,measurement,value
"O=C1CC(c2ccccc2)=NN1c1cccc(Cl)c1 [Comp II, 2-(3-Chloro-phenyl)-5-phenyl-2,4-dihydro-pyrazol-3-one]",activation triggered translocation of phox 47 to the membrane,not inhibited
